# Assay results published in patent USRE39192E1, “Supplemented and unsupplemented tissue sealants, methods of their production and use” (American National Red Cross, priority 1990, dated 2006).
# What was measured:
# [1] = tested on: human ovarian carcinoma cell (OVACAR); assay: Growth inhibition of OVCAR cells by eluates of taxol-supplemented fibrin sealant (MTT assay); format: cell-based; settings: taxol in solid anhydrous form
# Protocol: The kinetics of taxol delivery from fibrin sealant were initially evaluated, by incorporating taxol (0.26 mg), either as an anhydrous solid or dissolved in ethanol, into 400 μl fibrin sealant composition. The resulting supplemented fibrin matrices were then placed in 2 ml histidine buffer, and incubated at 37° C. The buffer was exchanged after two days, and again ten days later. The relative concentration of taxol in the resulting eluates determined by measuring their ability to inhibit the growth of a human ovarian carcinoma cell (OVACAR) in vitro (MacPhee et al., In Current Trends in Surgical Tissue Adhesives: Proceedings of the First International Symposium on Surgical Adhesives, R. Saltz and D. Sierra, eds. Springer-Verlag).
# Briefly, 1000 OVCAR cells in 100 μl of growth medium were plated into each well of a 96 well culture plate and incubated for 24 hours. A 100 μl volume of various dilutions of the eluates was then placed into the wells (10 wells per dilution), and the plate incubated at 37° C. After five days, the number of cells in each well was measured using the MTT assay (Rapaport et al., American Journal of Clinical Pathology 97:84 (1992)). […] The resulting chromaphore is detected by spectrophotometry at 570 nm. […]
# NIH 3T3 fibroblasts = assay: Cell chemotaxis assay (modified Boyden's chamber), NIH 3T3 fibroblasts; format: cell-based
# From the text: (§1) NIH/3T3 fibroblasts at passage 126 were purchased from the American Type Culture Collection, Rockville, Md. Cultures from passages 129-133 were used in the chemotaxis assays. Cultures were propagated in DMEM supplemented with 10%. Calf serum and approximately 1% antibiotic antimycotic solution. Human dermal fibroblasts (HDFs) were purchased from Clonetics, Inc. (San Diego, Calif.) at passage 2. Cultures from passages 3-5 were used in the chemotaxis assays. Cultures were cultivated in DMEM supplemented with 20% FBS (Hyclone Laboratories, Inc., Logan, Utah) and approximately 1% antibiotic antimycotic solution (Gibco, Grand Island, N.Y.).
# The procedure used to determine cellular chemotaxis was a combination of two known methodologies. A modification of Boyden's chamber was used as follows: Millicell-PCF (Millipore, Inc., Bedford, Mass.) (12.0 μm) 12.0 mm diameter inserts were placed in individual wells of 24 well plates to create the upper and lower chemotaxis chambers. Chemotaxis results were arrived at by performing checkerboard analysis for every combination of cells and growth factors. […] Briefly, cultures were trypsanized and placed in DMEM+0.1% Bovine Serum Albumin (BSA) (Sigma Chemical Co., St. Louis, Mo.) for approximately one hour at 37° C. in a 5% CO2 humidified chamber. Tow to 2.5×10^5 cells in 50 μl were added per insert to the upper chamber of the setup of the 24 well plates. Treatments were added as mentioned above. The assay was kept at 37° C. in a 5% CO2 humidified chamber for 4 hours. All combinations tested were performed in triplicate. At the end of 4 hours, the plates were removed from the incubator and the filters were stained following the protocol for staining included with the Millicell-PCT inserts. Briefly, the fluid surrounding the inside and outside of the Millicell-PCF inserts were removed. Three percent glutaraldehyde (Sigma Chemical Co., St. Louis, Mo.) was added to the outside and inside of the inserts for approximately 20 minutes. Following removal of the 3.0% glutaraldehyde, 0.5% Triton X-100 (E.M. Science, Cherry Hill, N.J.) was added for 5-7 minutes. On removal of the 0.5% Triton X-100, Fisher's Hematoxylin Solution Gill's Formulation (Fisher Scientific, Newark, Del.) No.1 was added for about 10 minutes. This solution was washed off in running distilled water for about 5 minutes. Using a cotton swab the upper side of the filter was swabbed to remove cells which had not migrated. Filters, were mounted lower side facing up on slides in Crystal Mount™ (Biomedia, Inc., Foster City, Calif.) solution and 10 random field were counted per slide both visually at 400× and at 200×using an Image Analyzing System to automate the enumeration of the cells on the underside of the filters.
# (§2) As required, checkerboard analysis was carried out to determine random migration, and positive and negative chemotaxis. Growth factors were added to the upper and/or lower chambers to observe whether cells migrated towards the GF alone (chemotaxis), whether migration was random irrespective of whether the growth factor was added to the upper or lower well (chemokinesis) or whether cell migration was against the chemotactic gradient (negative chemotaxis).
# [2] = tested on: human dermal fibroblasts (HDFs); assay: Cell chemotaxis assay (modified Boyden's chamber), human dermal fibroblasts; format: cell-based
# From the text: as §1
# The procedure used to determine cellular chemotaxis was a combination of two known methodologies. A modification of Boyden's chamber was used as follows: Millicell-PCF (Millipore, Inc., Bedford, Mass.) (12.0 μm) 12.0 mm diameter inserts were placed in individual wells of 24 well plates to create the upper and lower chemotaxis chambers. Chemotaxis results were arrived at by performing checkerboard analysis for every combination of cells and growth factors. Concentrations ranging from 0.1, 1, 10, 100 ng/ml with/without added heparin (10 U/ml) were used for FGF-1, FGF-2 (no heparin) and FGF-4 with all the cell types mentioned in the materials section. Briefly, cultures were trypsanized and placed in DMEM+0.1% Bovine Serum Albumin (BSA) (Sigma Chemical Co., St. Louis, Mo.) for approximately one hour at 37° C. in a 5% CO2 humidified chamber. Tow to 2.5×10^5 cells in 50 μl were added per insert to the upper chamber of the setup of the 24 well plates. Treatments were added as mentioned above. The assay was kept at 37° C. in a 5% CO2 humidified chamber for 4 hours. All combinations tested were performed in triplicate. At the end of 4 hours, the plates were removed from the incubator and the filters were stained following the protocol for staining included with the Millicell-PCT inserts. Briefly, the fluid surrounding the inside and outside of the Millicell-PCF inserts were removed. Three percent glutaraldehyde (Sigma Chemical Co., St. Louis, Mo.) was added to the outside and inside of the inserts for approximately 20 minutes. Following removal of the 3.0% glutaraldehyde, 0.5% Triton X-100 (E.M. Science, Cherry Hill, N.J.) was added for 5-7 minutes. On removal of the 0.5% Triton X-100, Fisher's Hematoxylin Solution Gill's Formulation (Fisher Scientific, Newark, Del.) No.1 was added for about 10 minutes. This solution was washed off in running distilled water for about 5 minutes. Using a cotton swab the upper side of the filter was swabbed to remove cells which had not migrated. Filters, were mounted lower side facing up on slides in Crystal Mount™ (Biomedia, Inc., Foster City, Calif.) solution and 10 random field were counted per slide both visually at 400× and at 200×using an Image Analyzing System to automate the enumeration of the cells on the underside of the filters.
# as §2
# [3] = tested on: human umbilical endothelial cells; assay: Human umbilical endothelial cells embedded in FG; format: cell-based; settings: within 24 hours, maintained at least 5 days
# Protocol: To study their growth, human umbilical endothelial cells, 10^5 or more cells per ml, were embedded in FG, the protein concentration of which was 4 mg/ml. The concentration of thrombin in the FG was adjusted to 0.6 NIH U/ml. The culture medium used in all of the experiments was M199 (Sigma Chemical Co., St. Louis, Mo.) supplemented with 10% fetal bovine serum, 10 μg/ml streptomycin, 100 U/ml penicillin, 1 ng/ml FGF-1 and 10 U/ml heparin.
# As a control, an identical cell suspension was cultured on a surface coated with fibronectin at 10 μg/cm^2. […] FIGS. 9 and 10 show this situation at 24 and 48 hours, respectively.
# [4] = Release of 5-FU from FG clots; settings: clots containing 50 mg of solid anhydrous 5-FU
# [5] = Saturation concentration of 5-FU in water; format: physicochemical
# [6] = Compatibility of TGF-β2 in Topical Fibrinogen Complex (ELISA, bio-assay); settings: after two weeks in TFC at 2-8° C.
# Protocol: Fibrinogen and thrombin were prepared per instruction of the American Red Cross, Rockville, Md. Upon reconstitution, the protein concentration of the Topical Fibrinogen Complex, (TFC) was 120 mg/ml (the standard formulation for hemostasis). The human thrombin was reconstituted with 40 mM CaCl2 to yield a solution at 300 units/ml.
# To evaluate the compatibility of transforming growth factor β2 (TGF-β2) in Topical Fibrinogen Complex, TFG-β2 (purified recombinant human protein provided by Genzyme Corp., Framingham, Mass.) was spiked into TFC at 10 and 1 μg/ml. Samples were incubated for two weeks at 2-8° C. TGF-β2 was extracted for analysis by passing the gel-like material through a narrow bore stopcock connected to two syringes.
molecule,measurement,setting,value
"CC(=O)O[C@H]1C(=O)[C@@]2(C)[C@H]([C@H](OC(=O)c3ccccc3)[C@]3(O)C[C@H](OC(=O)[C@H](O)[C@@H](NC(=O)c4ccccc4)c4ccccc4)C(C)=C1C3(C)C)[C@]1(OC(C)=O)CO[C@@H]1C[C@@H]2O [taxol, paclitaxel]",time OVCAR cells were significantly inhibited,[1],up to 85 days
fibronectin [reference compound],concentration of maximal chemotactic response,NIH 3T3 fibroblasts,20 µg/mL
same,migrated cells (checkerboard analysis),"NIH 3T3 fibroblasts; lower 0 μg/ml, upper 20 μg/ml",69.6 +/− 12.25
same,migrated cells (checkerboard analysis),"NIH 3T3 fibroblasts; lower 0 μg/ml, upper 50 μg/ml",62.0 +/− 2.616
same,migrated cells (checkerboard analysis),"NIH 3T3 fibroblasts; lower 10 μg/ml, upper 0 μg/ml",68.03 +/− 10.793
same,migrated cells (checkerboard analysis),"NIH 3T3 fibroblasts; lower 10 μg/ml, upper 10 μg/ml",47.53 +/− 5.605
same,migrated cells (checkerboard analysis),"NIH 3T3 fibroblasts; lower 10 μg/ml, upper 20 μg/ml",64.86 +/− 7.961
same,migrated cells (checkerboard analysis),"NIH 3T3 fibroblasts; lower 10 μg/ml, upper 50 μg/ml",74.66 +/− 3.946
same,migrated cells (checkerboard analysis),"NIH 3T3 fibroblasts; lower 20 μg/ml, upper 0 μg/ml",90.53 +/− 5.203
same,migrated cells (checkerboard analysis),"NIH 3T3 fibroblasts; lower 20 μg/ml, upper 10 μg/ml",88.73 +/− 4.152
same,migrated cells (checkerboard analysis),"NIH 3T3 fibroblasts; lower 20 μg/ml, upper 20 μg/ml",56.9 +/− 3.289
same,migrated cells (checkerboard analysis),"NIH 3T3 fibroblasts; lower 20 μg/ml, upper 50 μg/ml",76.23 +/− 1.8190
same,migrated cells (checkerboard analysis),"NIH 3T3 fibroblasts; lower 50 μg/ml, upper 0 μg/ml",72.43 +/− 8.276
same,migrated cells (checkerboard analysis),"NIH 3T3 fibroblasts; lower 50 μg/ml, upper 10 μg/ml",91.3 +/− 1.003
same,migrated cells (checkerboard analysis),"NIH 3T3 fibroblasts; lower 50 μg/ml, upper 20 μg/ml",63.26 +/− 3.835
same,migrated cells (checkerboard analysis),"NIH 3T3 fibroblasts; lower 50 μg/ml, upper 50 μg/ml",57.46 +/− 2.287
same,migrated cells (checkerboard analysis),"NIH 3T3 fibroblasts; lower compartment 0 μg/ml, upper compartment 10 μg/ml",62.3 +/− 3.269
same,concentration of maximal chemotactic response,[2],20 µg/mL
same,cell morphology,[3],acquired a cobblestone shape
"O=c1[nH]cc(F)c(=O)[nH]1 [5-FU, 5-fluorouracil]",duration of 5-FU delivery,[4],at least 75 hours
same,concentration in water saturated with 5-FU,[5],17000 µg/mL
"TGF-β2: purified recombinant human protein provided by Genzyme Corp., spiked into TFC / fibrin clot (protein, UniProt P61812 303-414, looked up) Transforming growth factor …: ALDAAYCFRNVQDNCCLRPLYIDFKRDLGWKWIHEPKGYNANFCAGACPYLWSSDTQHSRVLSLYNTINPEASASPCCVSQDLEPLTILYYIGKTPKIEQLSNMIVKSCKCS",bio-assay of extract,[6],bioactive
